Test results: patent publication US20110257258A1 (priority 2006, published 2011)

Assays:
[1] = system: H5N1; type: cell-based
[2] = system: Avian Influenza virus; parameters: species or system Human; details: in vivo
[3] = system: Avian Influenza virus; parameters: species or system Human; details: in vivo; remark: listed apart in the source

| Molecule | inhibits H5N1 infections in mammalian cells by blocking the attachment and entry into the cells [1] | adults in the test group developing Avian Influenza symptoms [2] | abatement of Avian Influenza symptoms [3] | recovery from the Avian Influenza illness [3] |
| --- | --- | --- | --- | --- |
| O=C(O[C@@H]1Cc2c(O)cc(O)cc2O[C@@H]1c1cc(=O)c(O)c2c(O)c(O)cc([C@H]3Oc4cc(O)cc(O)c4C[C@H]3O)c2c1)c1cc(O)c(O)c(O)c1 [theaflavin-3-monogallate] | inhibits H5N1 infections |  |  |  |
| O=c1c(O)cc([C@H]2Oc3cc(O)cc(O)c3C[C@H]2O)cc2c([C@H]3Oc4cc(O)cc(O)c4C[C@H]3O)cc(O)c(O)c12 [theaflavin] | inhibits H5N1 infections | None | abate more rapidly than normal | fully recovers |
| theaflavin-3′-gallate | inhibits H5N1 infections |  |  |  |
| (−)-epigallocatechin gallate [EGCG] | inhibits H5N1 infections |  |  |  |
| theaflavin-3,3′-digallate | inhibits H5N1 infections |  |  |  |
